Reference: patent US20100136118A1, “CALCIUM ABSORPTION ENHANCER” (priority 2007, published 2010)
Entries after “also recorded” stand apart in the source; their conditions may differ.

What was measured:
Assay type in all cases: physicochemical
Conditions in all cases: organic acid calcium from egg shell mixture (A)
[1] = sustained release property in simulated intestines (column, distilled water)
Protocol: (§1) The amount of an eluted solvent (mL) and changes in the amount of calcium ions (integrated value) with elution of distilled water were measured, and the amount of an eluted solvent (mL) and changes in the amount of each organic acid (integrated value) with elution of distilled water were measured. Among the obtained results, the measurement results regarding the amount of calcium ions (integrated value) are shown in FIG. 11.
(§2) Furthermore, as a solvent, distilled water was used instead of 0.1 N aqueous HCl solution to simulate a state in which gastric acid was neutralized when a drink or a food was transported from the stomach to the duodenum. Except for this condition, the amount of solvent (mL) eluted in the simulated gastric cavity and changes in the amount of calcium ions (integrated value) with elution of the solvent were evaluated in the same manner as in Example 8.
Using distilled water as a solvent, the amount of solvent (mL) eluted in the simulated gastric cavity and changes in the amount of calcium ions (integrated value) with elution of the solvent were evaluated. […]
Using distilled water as a solvent, the amount of solvent (mL) eluted in the simulated intestine and changes in the amount of calcium ions (integrated value) with elution of the solvent were evaluated. […]

[2] = sustained release property in simulated gastric cavity (column, 0.05 N aqueous HCl solution, diluted gastric juice)
Protocol: as §1, with “0.05 N HCl” for “distilled water”, “9.” for “11.”
as §2, with “0.05 N aqueous HCl solution” for “distilled water”, “juice in an organism” for “acid”, “diluted with drinking water.” for “neutralized when a drink or a food was transported from the stomach to the duodenum.”
(§3) Using 0.05 N aqueous HCl solution as a solvent, the amount of solvent (mL) eluted in the simulated gastric cavity and changes in the amount of calcium ions (integrated value) with elution of the solvent were evaluated. […]
as §3

[3] = sustained release property in simulated gastric cavity (column, 0.1 N aqueous HCl solution)
Protocol: Subsequently, 0.1 N aqueous HCl solution simulating a gastric juice as a solvent was passed through this column and separated by a low-pressure chromatography system (Bio-Rad Laboratories, Inc., BioLogic LP Chromatography System) over time. The flow rate of the solvent during the separation was 1.0 mL/min. Then, the calcium ion concentration in each separated solution was measured using Calcium C-test Wako (Wako Pure Chemical Industries, Ltd., Cat. No. 272-21801). The concentration of the organic acid in each separated solution (lactic acid, acetic acid, and citric acid) was measured using F-Kit Lactic Acid, F-Kit Acetic Acid, and F-Kit Citric Acid (Roche Diagnostics K.K., Cat. Nos. 1112821, 148261, and 139076).
The amount of an eluted solvent (mL) and changes in the amount of calcium ions (integrated value) with elution of 0.1 N HCl were measured, and the amount of an eluted solvent (mL) and changes in the amount of each organic acid (integrated value) with elution of 0.1 N HCl were measured.
Using 0.1 N aqueous HCl solution as a solvent, the amount of solvent (mL) eluted in the simulated gastric cavity and changes in the amount of calcium ions (integrated value) with elution of the solvent were evaluated. […]

Row | Structure (SMILES) | amount of each organic acid (integrated value) vs amount of eluted solvent [1] | amount of each organic acid (integrated value) vs amount of eluted solvent [2] | amount of each organic acid (integrated value) vs amount of eluted solvent [3]
1 | O=C([O-])CC(O)(CC(=O)[O-])C(=O)[O-].O=C([O-])CC(O)(CC(=O)[O-])C(=O)[O-].[Ca+2].[Ca+2].[Ca+2] [calcium citrate] | gradually dissolved | gradually dissolved; also recorded: dissolved in virtually the same amount | started gradually after the start of elution
2 | CC(O)C(=O)[O-].CC(O)C(=O)[O-].[Ca+2] (stereo not drawn) [calcium lactate] | dissolved first at the stage of the start of measurement | dissolved first | dissolved first at the stage of the start of measurement
